Values after ≈ are worked out from the molar mass of the structure shown. Like-named read-outs stand apart in the source and are kept apart here.
Experiments:
Prevotella bivia = test: Agar dilution MIC (CLSI), Prevotella bivia vaginal isolates; assay type: cell-based; conditions: for MIC: read-out: Minimal Inhibitory Concentration (MIC)
Finegoldia magna = test: Agar dilution MIC (CLSI), Finegoldia magna vaginal isolates; assay type: cell-based; conditions: for MIC: read-out: Minimal Inhibitory Concentration (MIC); for Number of strains with indicated MIC: 20 samples
[1] = system: bacterial vaginosis (BV) related organisms; test: Agar dilution MIC (CLSI), 411 vaginal BV related organisms overall; assay type: cell-based
Description: The method used was the reference method approved by the Clinical and Laboratory Standards Institute (CLSI). The CLSI is considered the gold standard for determining the lowest concentration of an antimicrobial agent that prevents growth of a microorganism in an agar dilution susceptibility test referred to as the minimal inhibitory concentration (MIC).
A total of 411 unique microbial isolates recovered from the human vagina of US women from a period of time from 2009 to 2012 were tested for antimicrobial susceptibility by the agar dilution method. A total of 13 analytical runs were conducted in order to analyze all of the samples. See, Example 1.
A total of 411 unique microbial isolates recovered from the human vagina from 2009-2012 were tested for antimicrobial susceptibility by the agar dilution method. This procedure followed the guidelines of the Clinical Laboratory Standard Institute reference agar dilution method (CLSI).
The MIC endpoint was read on the test plate. The MIC is that concentration at which a marked reduction occurs in the appearance of growth on the test plate as compared to the amount that of growth on the control plate. Examples of a marked change in growth include a change from confluent growth to a haze, less than 10 tiny colonies, or one to three normal sized colonies. The illustrated figures found in the CLSI manual should be used as a guide.

[2] = system: Clostridium difficile, ATCC 700057; conditions: agar dilution testing, from CLSI Table 5; cited from earlier work
Lactobacilli = conditions: pathogens: Gardnerella vaginalis, Mobiluncus spp, Bacteroides bivius-disiens; cited from earlier work
vaginal infections = conditions: daily dosage less than 100 mg/day; cited from earlier work

SMILES: CO[C@H]1/C=C/O[C@@]2(C)Oc3c(C)c(O)c4c(O)c(c5c(nc6cc(C)ccn65)c4c3C2=O)NC(=O)/C(C)=C\C=C\[C@H](C)[C@H](O)[C@@H](C)[C@@H](O)[C@@H](C)[C@H](OC(C)=O)[C@@H]1C [Rifaximin]
- MIC (Prevotella bivia; Prevotella bivia, isolate 601261 C): 0.25 µg/mL (≈ 0.318 µM)
- MIC (Prevotella bivia; Prevotella bivia, isolate 601283 20): 0.25 µg/mL (≈ 0.318 µM)
- MIC (Prevotella bivia; Prevotella bivia, isolate 601285 14): 0.125 µg/mL (≈ 0.159 µM)
- MIC (Prevotella bivia; Prevotella bivia, isolate 601293 22): 0.25 µg/mL (≈ 0.318 µM)
- MIC (Prevotella bivia; Prevotella bivia, isolate 601305 H): 0.125 µg/mL (≈ 0.159 µM)
- MIC (Prevotella bivia; Prevotella bivia, isolate 601340 31): 0.25 µg/mL (≈ 0.318 µM)
- MIC (Prevotella bivia; Prevotella bivia, isolate 601355 B): 1 µg/mL (≈ 1.27 µM)
- MIC (Prevotella bivia; Prevotella bivia, isolate 601367 M): 0.5 µg/mL (≈ 0.636 µM)
- MIC (Prevotella bivia; Prevotella bivia, isolate 601374 A1): 0.25 µg/mL (≈ 0.318 µM)
- MIC (Prevotella bivia; Prevotella bivia, isolate 601378 B): 0.25 µg/mL (≈ 0.318 µM)
- MIC (Prevotella bivia; Prevotella bivia, isolate 601379 19): 0.25 µg/mL (≈ 0.318 µM)
- MIC (Prevotella bivia; Prevotella bivia, isolate 601388 T): 0.25 µg/mL (≈ 0.318 µM)
- MIC (Prevotella bivia; Prevotella bivia, isolate 601389 10): 0.25 µg/mL (≈ 0.318 µM)
- MIC (Prevotella bivia; Prevotella bivia, isolate 601389 J): 0.25 µg/mL (≈ 0.318 µM)
- MIC (Prevotella bivia; Prevotella bivia, isolate 601392 14): 0.125 µg/mL (≈ 0.159 µM)
- MIC (Prevotella bivia; Prevotella bivia, isolate 601409 V): 0.25 µg/mL (≈ 0.318 µM)
- MIC (Prevotella bivia; Prevotella bivia, isolate 601410 12): 0.25 µg/mL (≈ 0.318 µM)
- MIC (Prevotella bivia; Prevotella bivia, isolate 601429 1): 0.25 µg/mL (≈ 0.318 µM)
- MIC (Prevotella bivia; Prevotella bivia, isolate 601433 19): 0.25 µg/mL (≈ 0.318 µM)
- MIC (Prevotella bivia; Prevotella bivia, isolate 601449 E): 0.5 µg/mL (≈ 0.636 µM)
- MIC (Prevotella bivia; Prevotella bivia, isolate 601453 A): 0.25 µg/mL (≈ 0.318 µM)
- MIC (Prevotella bivia; Prevotella bivia, isolate 601455 D1): 0.25 µg/mL (≈ 0.318 µM)
- MIC (Prevotella bivia; Prevotella bivia, isolate 601458 16): 0.25 µg/mL (≈ 0.318 µM)
- MIC50 (Prevotella bivia; Prevotella bivia, # tested 34): 0.25 µg/mL (≈ 0.318 µM)
- MIC90 (Prevotella bivia; Prevotella bivia, # tested 34): 0.5 µg/mL (≈ 0.636 µM)
- Susceptible (Prevotella bivia; number (%) of isolates, # tested 34): 34 (100) μg/ml
- MIC Range (Finegoldia magna; # tested 20): 0.125 to 16 µg/mL
- MIC (Finegoldia magna; Finegoldia magna, isolate 301303V D): 4 µg/mL (≈ 5.09 µM)
- MIC (Finegoldia magna; Finegoldia magna, isolate 601205V 39): 4 µg/mL (≈ 5.09 µM)
- MIC (Finegoldia magna; Finegoldia magna, isolate 601214V F): 8 µg/mL (≈ 10.2 µM)
- MIC (Finegoldia magna; Finegoldia magna, isolate 601275V c): 0.125 µg/mL (≈ 0.159 µM)
- MIC (Finegoldia magna; Finegoldia magna, isolate 601276V 23): 4 µg/mL (≈ 5.09 µM)
- MIC (Finegoldia magna; Finegoldia magna, isolate 601283V 14): 4 µg/mL (≈ 5.09 µM)
- MIC (Finegoldia magna; Finegoldia magna, isolate 601293V 27): 4 µg/mL (≈ 5.09 µM)
- MIC (Finegoldia magna; Finegoldia magna, isolate 601295V 25): 4 µg/mL (≈ 5.09 µM)
- MIC (Finegoldia magna; Finegoldia magna, isolate 601298V 30): 4 µg/mL (≈ 5.09 µM)
- MIC (Finegoldia magna; Finegoldia magna, isolate 601308V 24): 2 µg/mL (≈ 2.54 µM)
- MIC (Finegoldia magna; Finegoldia magna, isolate 601315V 17): 8 µg/mL (≈ 10.2 µM)
- MIC (Finegoldia magna; Finegoldia magna, isolate 601315V 17A): 8 µg/mL (≈ 10.2 µM)
- MIC (Finegoldia magna; Finegoldia magna, isolate 601320V 24): 16 µg/mL (≈ 20.4 µM)
- MIC (Finegoldia magna; Finegoldia magna, isolate 601323V K): 4 µg/mL (≈ 5.09 µM)
- MIC (Finegoldia magna; Finegoldia magna, isolate 601330V c): 16 µg/mL (≈ 20.4 µM)
- MIC (Finegoldia magna; Finegoldia magna, isolate 601335V c1): 4 µg/mL (≈ 5.09 µM)
- MIC (Finegoldia magna; Finegoldia magna, isolate 601340V 27): 8 µg/mL (≈ 10.2 µM)
- MIC (Finegoldia magna; Finegoldia magna, isolate 601359V c): 2 µg/mL (≈ 2.54 µM)
- MIC (Finegoldia magna; Finegoldia magna, isolate 601363V 6): 0.25 µg/mL (≈ 0.318 µM)
- MIC (Finegoldia magna; Finegoldia magna, isolate 601367V c): 16 µg/mL (≈ 20.4 µM)
- MIC50 (Finegoldia magna; Finegoldia magna, # tested 20): 4 µg/mL (≈ 5.09 µM)
- MIC90 (Finegoldia magna; Finegoldia magna, # tested 20): 16 µg/mL (≈ 20.4 µM)
- Number of strains with indicated MIC (Finegoldia magna; MIC 8 μg/ml): 4
- Number of strains with indicated MIC (Finegoldia magna; MIC 16 μg/ml): 3
- Number of strains with indicated MIC (Finegoldia magna; MIC […]): 1
- Susceptible (Finegoldia magna; number (%) of isolates, # tested 20): 20 (100) μg/ml
- susceptibility of pathogenic strains in respect to clindamycin ([1]; Prevotella, Anaerococcus, Finegoldia, Peptoniphilus and Atopobium strains): higher susceptibility
- susceptibility of pathogenic strains in respect to metronidazole ([1]; Prevotella, Anaerococcus, Peptoniphilus, Atopobium, Megasphera and Mobiluncus strains): higher susceptibility
- efficacy against all pathogen vaginal bacteria judged from MICs, in comparison to metronidazole and clindamycin ([1]; in particular when Prevotella strains are present): more efficacious
- Acceptable Range of MIC for control strain [2]: 0.0039 to 0.0156 µg/mL
- inhibitory action (MIC50 and MIC90) against Lactobacilli compared with action against pathogenic bacteria (Lactobacilli): equal to, or even higher than
- efficacy in the treatment of vaginal infections (vaginal infections): efficacious
